In US20260345517A1, “DOSAGE REGIMENS FOR TREATING STARGARDT DISEASE” (Alkeus Pharmaceuticals, Inc., priority 2024, published 2026):

Experiment: TEASE-1: safety and adverse events
Assay type: in vivo, human
Method: The Tolerability and Effects of gildeuretinol acetate in Stargardt Disease (Clinical trial group 1 also known as TEASE-1) was a 24-month, multicenter, double-masked, placebo-controlled trial designed to evaluate the efficacy and safety of daily oral gildeuretinol acetate in slowing the growth of atrophic retinal lesions in Stargardt disease patients. The trial was conducted at multiple sites in the United States (NCT02402660).
Patients 12 years or older, clinically diagnosed with Stargardt disease, with at least one ABCA4 mutation, at least one eye presenting with well-demarcated areas of reduced fundus autofluorescence, and with any visual acuity, were eligible.
Patients were randomized to gildeuretinol acetate 14 mg capsules, gildeuretinol acetate 24 mg capsules, or placebo capsules, to be taken once daily for one year. After one year, 50% of randomly selected patients receiving placebo were crossed over in a 1:1 ratio to gildeuretinol acetate 14 mg capsules or gildeuretinol acetate 24 mg capsules for a second year.
Gildeuretinol acetate and placebo capsules were identical appearing capsules. Patients were advised to avoid vitamin A-containing supplements and liver-based products. Fruits and vegetables contain beta-carotene, not preformed vitamin A, and could be consumed without limitation. Trial visits occurred at 8 weeks and 6, 12, 18, and 24 months following screening and randomization.

SMILES: CC(=O)OC/C=C(C)/C=C/C=C(C)/C=C/C1=C(C)CCCC1(C)C [gildeuretinol acetate, C20-D3-retinol acetate]
- Inflammation (24 mg, N = 15): 0 patients (%)
- Influenza (24 mg, N = 15): 1 (6.7) patients (%)
- Insomnia (24 mg, N = 15): 0 patients (%)
- Intracranial pressure increased (24 mg, N = 15): 1 (6.7) patients (%)
- Irritability (24 mg, N = 15): 0 patients (%)
- Jaw operation (24 mg, N = 15): 1 (6.7) patients (%)
- Knee arthroplasty (24 mg, N = 15): 0 patients (%)
- Laryngitis (24 mg, N = 15): 0 patients (%)
- Lip swelling (24 mg, N = 15): 0 patients (%)
- Low density lipoprotein increased (24 mg, N = 15): 0 patients (%)
- Muscle spasms (24 mg, N = 15): 0 patients (%)
- Muscle strain (24 mg, N = 15): 0 patients (%)
- Musculoskeletal pain (24 mg, N = 15): 1 (6.7) patients (%)
- Nasopharyngitis (24 mg, N = 15): 3 (20.0) patients (%)
- Nausea (24 mg, N = 15): 1 (6.7) patients (%)
- Neck pain (24 mg, N = 15): 0 patients (%)
- Nephrolithiasis (24 mg, N = 15): 0 patients (%)
- Nerve compression (24 mg, N = 15): 0 patients (%)
- Neuralgia (24 mg, N = 15): 0 patients (%)
- Obsessive-compulsive disorder (24 mg, N = 15): 0 patients (%)
- Oropharyngeal pain (24 mg, N = 15): 3 (20.0) patients (%)
- Osteoporosis (24 mg, N = 15): 1 (6.7) patients (%)
- Pain (24 mg, N = 15): 0 patients (%)
- Pain in extremity (24 mg, N = 15): 2 (13.3) patients (%)
- Pain in jaw (24 mg, N = 15): 0 patients (%)
- Peripheral coldness (24 mg, N = 15): 0 patients (%)
- Pharyngitis streptococcal (24 mg, N = 15): 0 patients (%)
- Photophobia (24 mg, N = 15): 0 patients (%)
- Photopsia (24 mg, N = 15): 0 patients (%)
- Plantar fasciitis (24 mg, N = 15): 0 patients (%)
- Pleurisy (24 mg, N = 15): 0 patients (%)
- Pneumonia (24 mg, N = 15): 0 patients (%)
- Premenstrual syndrome (24 mg, N = 15): 1 (6.7) patients (%)
- Punctate keratitis (24 mg, N = 15): 0 patients (%)
- Pyrexia (24 mg, N = 15): 1 (6.7) patients (%)
- Radius fracture (24 mg, N = 15): 0 patients (%)
- Rash (24 mg, N = 15): 0 patients (%)
- Rotator cuff syndrome (24 mg, N = 15): 1 (6.7) patients (%)
- Sialoadenitis (24 mg, N = 15): 0 patients (%)
- Sinus congestion (24 mg, N = 15): 1 (6.7) patients (%)
- Sinusitis (24 mg, N = 15): 0 patients (%)
- Sjogren's syndrome (24 mg, N = 15): 0 patients (%)
- Skin infection (24 mg, N = 15): 0 patients (%)
- Subdural haematoma (24 mg, N = 15): 0 patients (%)
- Syncope (24 mg, N = 15): 1 (6.7) patients (%)
- Tendonitis (24 mg, N = 15): 0 patients (%)
- Thoracic outlet syndrome (24 mg, N = 15): 0 patients (%)
- Tongue dry (24 mg, N = 15): 0 patients (%)
- Tooth abscess (24 mg, N = 15): 1 (6.7) patients (%)
- Tooth extraction (24 mg, N = 15): 1 (6.7) patients (%)
- Toothache (24 mg, N = 15): 0 patients (%)
- Upper respiratory tract infection (24 mg, N = 15): 1 (6.7) patients (%)
- Vision blurred (24 mg, N = 15): 0 patients (%)
- Visual field defect (24 mg, N = 15): 0 patients (%)
- Visual impairment (24 mg, N = 15): 0 patients (%)
- Vitamin B12 deficiency (24 mg, N = 15): 0 patients (%)
- Vitamin D decreased (24 mg, N = 15): 1 (6.7) patients (%)
- Vitreous floaters (24 mg, N = 15): 0 patients (%)
- Vulvovaginal candidiasis (24 mg, N = 15): 1 (6.7) patients (%)
- Wrist fracture (24 mg, N = 15): 0 patients (%)
- Xanthelasma (24 mg, N = 15): 1 (6.7) patients (%)
- elevated intracranial pressure (24 mg, one patient): Elevated intracranial pressure was measured
- papilledema grade (modified Frisen scale) with elevated intracranial pressure (24 mg, one patient, resolved upon temporary interruption and acetazolamide): Grade 1
- Abdominal discomfort (crossover, N = 10): 1 (10.0) patients (%)
- Abdominal distension (crossover, N = 10): 0 patients (%)
- Abdominal pain upper (crossover, N = 10): 0 patients (%)
- Abnormal dreams (crossover, N = 10): 0 patients (%)
- Adverse events, Overall (crossover, N = 10): 8 (80) patients (%)
- Alanine aminotransferase increased (crossover, N = 10): 1 (10.0) patients (%)
- Alopecia (crossover, N = 10): 0 patients (%)
- Ankle fracture (crossover, N = 10): 0 patients (%)
- Arthralgia (crossover, N = 10): 1 (10.0) patients (%)
- Arthritis (crossover, N = 10): 1 (10.0) patients (%)
- Aspartate aminotransferase increased (crossover, N = 10): 1 (10.0) patients (%)
- Back injury (crossover, N = 10): 0 patients (%)
- Back pain (crossover, N = 10): 0 patients (%)
- Blepharospasm (crossover, N = 10): 1 (10.0) patients (%)
- Blood cholesterol increased (crossover, N = 10): 0 patients (%)
- Blood creatinine increased (crossover, N = 10): 0 patients (%)
- Blood iron decreased (crossover, N = 10): 0 patients (%)
- Blood pressure increased (crossover, N = 10): 0 patients (%)
- Blood triglycerides increased (crossover, N = 10): 0 patients (%)
- Bowel movement irregularity (crossover, N = 10): 0 patients (%)
- Bronchitis (crossover, N = 10): 0 patients (%)
- Cartilage injury (crossover, N = 10): 0 patients (%)
- Conjunctival laceration (crossover, N = 10): 0 patients (%)
- Conjunctivitis (crossover, N = 10): 0 patients (%)
- Constipation (crossover, N = 10): 0 patients (%)
- Cough (crossover, N = 10): 0 patients (%)
- Death (crossover, N = 10): 0 patients (%)
- Depression (crossover, N = 10): 0 patients (%)
- Diarrhoea (crossover, N = 10): 1 (10.0) patients (%)
- Diplopia (crossover, N = 10): 0 patients (%)
- Dry eye (crossover, N = 10): 0 patients (%)
- Dry mouth (crossover, N = 10): 0 patients (%)
- Dry skin (crossover, N = 10): 0 patients (%)
- Ear discomfort (crossover, N = 10): 0 patients (%)
- Ear infection (crossover, N = 10): 1 (10.0) patients (%)
- Ear pain (crossover, N = 10): 0 patients (%)
- Eczema (crossover, N = 10): 1 (10.0) patients (%)
- Electrocardiogram abnormal (crossover, N = 10): 1 (10.0) patients (%)
- Erythema (crossover, N = 10): 0 patients (%)
- Eye irritation (crossover, N = 10): 0 patients (%)
- Eye pain (crossover, N = 10): 0 patients (%)
- Eye pruritus (crossover, N = 10): 0 patients (%)
- Face injury (crossover, N = 10): 0 patients (%)
- Faeces soft (crossover, N = 10): 0 patients (%)
- Fall (crossover, N = 10): 0 patients (%)
- Gastroenteritis (crossover, N = 10): 1 (10.0) patients (%)
- Gastroenteritis viral (crossover, N = 10): 0 patients (%)
- Hair texture abnormal (crossover, N = 10): 0 patients (%)
- Hand fracture (crossover, N = 10): 0 patients (%)
- Headache (crossover, N = 10): 0 patients (%)
- Herpes zoster (crossover, N = 10): 0 patients (%)
- Hordeolum (crossover, N = 10): 0 patients (%)
- Hypertension (crossover, N = 10): 0 patients (%)
- Hypobarism (crossover, N = 10): 0 patients (%)
- Hypothyroidism (crossover, N = 10): 0 patients (%)
- Hysterectomy (crossover, N = 10): 0 patients (%)
- Inflammation (crossover, N = 10): 0 patients (%)
- Influenza (crossover, N = 10): 0 patients (%)
- Insomnia (crossover, N = 10): 0 patients (%)
- Intracranial pressure increased (crossover, N = 10): 0 patients (%)
- Irritability (crossover, N = 10): 0 patients (%)
- Jaw operation (crossover, N = 10): 0 patients (%)
- Knee arthroplasty (crossover, N = 10): 0 patients (%)
- Laryngitis (crossover, N = 10): 0 patients (%)
- Lip swelling (crossover, N = 10): 0 patients (%)
- Low density lipoprotein increased (crossover, N = 10): 0 patients (%)
- Muscle spasms (crossover, N = 10): 0 patients (%)
- Muscle strain (crossover, N = 10): 0 patients (%)
- Musculoskeletal pain (crossover, N = 10): 0 patients (%)
- Nasopharyngitis (crossover, N = 10): 1 (10.0) patients (%)
- Nausea (crossover, N = 10): 0 patients (%)
- Neck pain (crossover, N = 10): 0 patients (%)
- Nephrolithiasis (crossover, N = 10): 1 (10.0) patients (%)
- Nerve compression (crossover, N = 10): 0 patients (%)
- Neuralgia (crossover, N = 10): 0 patients (%)
- Obsessive-compulsive disorder (crossover, N = 10): 0 patients (%)
- Oropharyngeal pain (crossover, N = 10): 1 (10.0) patients (%)
- Osteoporosis (crossover, N = 10): 0 patients (%)
- Pain (crossover, N = 10): 0 patients (%)
- Pain in extremity (crossover, N = 10): 0 patients (%)
- Pain in jaw (crossover, N = 10): 0 patients (%)
- Peripheral coldness (crossover, N = 10): 0 patients (%)
- Pharyngitis streptococcal (crossover, N = 10): 0 patients (%)
- Photophobia (crossover, N = 10): 0 patients (%)
- Photopsia (crossover, N = 10): 0 patients (%)
- Plantar fasciitis (crossover, N = 10): 0 patients (%)
- Pleurisy (crossover, N = 10): 1 (10.0) patients (%)
- Pneumonia (crossover, N = 10): 1 (10.0) patients (%)
- Premenstrual syndrome (crossover, N = 10): 0 patients (%)
- Punctate keratitis (crossover, N = 10): 0 patients (%)
- Pyrexia (crossover, N = 10): 0 patients (%)
- Radius fracture (crossover, N = 10): 0 patients (%)
- Rash (crossover, N = 10): 1 (10.0) patients (%)
- Rotator cuff syndrome (crossover, N = 10): 0 patients (%)
- Sialoadenitis (crossover, N = 10): 0 patients (%)
- Sinus congestion (crossover, N = 10): 0 patients (%)
- Sinusitis (crossover, N = 10): 0 patients (%)
- Sjogren's syndrome (crossover, N = 10): 0 patients (%)
- Skin infection (crossover, N = 10): 0 patients (%)
- Subdural haematoma (crossover, N = 10): 0 patients (%)
- Syncope (crossover, N = 10): 0 patients (%)
- Tendonitis (crossover, N = 10): 0 patients (%)
- Thoracic outlet syndrome (crossover, N = 10): 0 patients (%)
- Tongue dry (crossover, N = 10): 0 patients (%)
- Tooth abscess (crossover, N = 10): 0 patients (%)
- Tooth extraction (crossover, N = 10): 0 patients (%)
- Toothache (crossover, N = 10): 0 patients (%)
- Upper respiratory tract infection (crossover, N = 10): 2 (20.0) patients (%)
- Vision blurred (crossover, N = 10): 1 (10.0) patients (%)
- Visual field defect (crossover, N = 10): 1 (10.0) patients (%)
- Visual impairment (crossover, N = 10): 0 patients (%)
- Vitamin B12 deficiency (crossover, N = 10): 0 patients (%)
- Vitamin D decreased (crossover, N = 10): 0 patients (%)
- Vitreous floaters (crossover, N = 10): 1 (10.0) patients (%)
- Vulvovaginal candidiasis (crossover, N = 10): 0 patients (%)
- Wrist fracture (crossover, N = 10): 0 patients (%)
- Xanthelasma (crossover, N = 10): 0 patients (%)
